Data on 38 molecules can be found in patent US5344828A, “Piperazinealkanoic acid and a pharmaceutical composition comprising the same” (Hokuriku Pharmaceutical Co., Ltd., priority 1990, dated 1994).

Molecules are shown by their SMILES.

In the first experiment the target is T1, contractile response induced by histamine in isolated guinea-pig ileum (Cavia porcellus, UniProt P31389).
T1 construct: An approximately 20 mm strip of isolated ileum was mounted vertically; from tissue; host or cells: isolated ileum strip, male Hartley guinea-pig
T1 sequence (P31389 whole entry): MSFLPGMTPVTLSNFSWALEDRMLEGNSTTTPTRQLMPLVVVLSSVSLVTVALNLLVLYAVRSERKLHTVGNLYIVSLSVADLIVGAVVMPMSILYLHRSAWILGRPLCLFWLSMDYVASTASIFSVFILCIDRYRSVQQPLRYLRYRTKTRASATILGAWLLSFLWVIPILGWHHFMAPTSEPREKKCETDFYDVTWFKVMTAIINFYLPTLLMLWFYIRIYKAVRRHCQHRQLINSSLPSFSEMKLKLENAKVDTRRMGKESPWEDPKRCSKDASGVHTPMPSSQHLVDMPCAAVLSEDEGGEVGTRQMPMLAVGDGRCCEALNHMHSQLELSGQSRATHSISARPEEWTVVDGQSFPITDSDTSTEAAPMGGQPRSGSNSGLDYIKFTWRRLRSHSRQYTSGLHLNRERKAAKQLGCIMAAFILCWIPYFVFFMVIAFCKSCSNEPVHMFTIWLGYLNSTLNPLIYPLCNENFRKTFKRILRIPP
In words: Antihistaminic activity (Effect on the contractile response induced by histamine in isolated guinea-pig ileum). Details: species or system guinea-pig (male Hartley). The following applies: dissociation constant KB (M), method of Furchgott, 30 min contact with test compound, 28° C. As to the method: 1. Antihistaminic activity (Effect on the contractile response induced by histamine in isolated guinea-pig ileum)
Male Hartley guinea-pigs, 5-8 weeks of age, were sacrificed and the ileum was excised. […] The contractile response was recorded on a recticorder an isotonic transducer. The concentration-contractile response curve to histamine was constructed before and after 30 min contact with test compounds.
`CN1CCN(C2=Nc3ccccc3Sc3ccc(Cl)cc32)CC1` [Clothiapine, reference compound] showed a Kb of 1.35e-09 M.

The molecule `CCOC(=O)CCN1CCN(C2=Nc3ccccc3Oc3ccc(Cl)cc32)CC1` [Example 2, Ethyl 4-(2-Chlorodibenz[b,f][1,4]oxazepin-11-yl)-1-piperazinepropionate] showed a Kb of 1.2e-08 M.

Turning to `CCOC(=O)CCCN1CCN(C2=Nc3ccccc3Oc3ccc(Cl)cc32)CC1` [Example 4, Ethyl 4-(2-Chlorodibenz[b,f][1,4]oxazepin-11-yl)-1-piperazinebutyrate], the Kb was 4.9e-09 M.

`CCOC(=O)CCCCN1CCN(C2=Nc3ccccc3Oc3ccc(Cl)cc32)CC1` [Example 5, Ethyl 4-(2-Chlorodibenz[b,f][1,4]oxazepin-11-yl)-1-piperazinevalerate] gave a Kb of 1.05e-08 M.

In turn, `CCOC(=O)CCCCCN1CCN(C2=Nc3ccccc3Oc3ccc(Cl)cc32)CC1` [Example 6] showed a Kb of 3.09e-09 M.

Molecule `O=C(O)CCN1CCN(C2=Nc3ccccc3Oc3ccc(Cl)cc32)CC1` [Example 8, 4-(2-Chlorodibenz[b,f][1,4]oxazepin-11-yl)-1-piperazinepropionic acid] showed a Kb of 5.01e-08 M.

As for `O=C(O)CCCN1CCN(C2=Nc3ccccc3Oc3ccc(Cl)cc32)CC1` [Example 9, 4-(2-Chlorodibenz[b,f][1,4]oxazepin-11-yl)-1-piperazinebutyric acid], the Kb is 4.79e-08 M.

In turn, `O=C(O)CCCCN1CCN(C2=Nc3ccccc3Oc3ccc(Cl)cc32)CC1` [Example 10, 4-(2-Chlorodibenz[b,f][1,4]oxazepin-11-yl)-1-piperazinevaleric acid] gave a Kb of 5.5e-08 M.

Molecule `CCOC(=O)CCN1CCN(C2=Nc3ccccc3Sc3ccc(Cl)cc32)CC1` [Example 13, Ethyl 4-(2-Chlorodibenzo[b,f][1,4]thiazepin-11-yl)-1-piperazinepropionate] had a Kb of 5.13e-08 M.

Turning to `CCOC(=O)CCCN1CCN(C2=Nc3ccccc3Sc3ccc(Cl)cc32)CC1` [Example 15, Ethyl 4-(2-Chlorodibenzo [b,f][1,4]thiazepin-11-yl)-1-piperazinebutyrate], the Kb is 3.02e-08 M.

As for `CCOC(=O)CCCCN1CCN(C2=Nc3ccccc3Sc3ccc(Cl)cc32)CC1` [Example 16, Ethyl 4-(2-Chlorodibenzo[b,f][1,4]thiazepin-11-yl)-1-piperazinevalerate], the Kb is 4.68e-08 M.

Take `CCOC(=O)CCCCCN1CCN(C2=Nc3ccccc3Sc3ccc(Cl)cc32)CC1` [Example 17, Ethyl 4-(2-Chlorodibenzo[b,f][1,4]thiazepin-11-yl)-1piperazinecaproate]: the Kb is 5.5e-08 M.

Regarding `O=C(O)CCN1CCN(C2=Nc3ccccc3Sc3ccc(Cl)cc32)CC1` [Example 19, 4-(2-Chlorodibenzo[b,f][1,4]thiazepin-11-yl)-1-piperazinepropionic acid], the Kb was 5.25e-08 M.

Molecule `O=C(O)CCCN1CCN(C2=Nc3ccccc3Sc3ccc(Cl)cc32)CC1` [Example 20, 4-(2-Chlorodibenzo[b,f][1,4]thiazepin-11-yl)-1-piperazinebutyric acid] showed a Kb of 5.75e-08 M.

`O=C(O)CCCCN1CCN(C2=Nc3ccccc3Sc3ccc(Cl)cc32)CC1` [Example 21, 4-(2-Chlorodibenzo [b,f][1,4]thiazepin-11-yl)-1-piperazinevaleric acid] showed a Kb of 5.89e-08 M.

`O=C(O)CCCCCN1CCN(C2=Nc3ccccc3Sc3ccc(Cl)cc32)CC1` [Example 22, 4-(2-Chlorodibenzo[b,f][1,4]thiazepin-11-yl)-1-piperazinecaproic acid] had a Kb of 3.47e-08 M.

For `CCOC(=O)CCN1CCN(C2=Nc3ccccc3Cc3ccccc32)CC1` [Example 24, Ethyl 4-(11H-Dibenz[b,e]azepin-6-yl)-1-piperazinepropionate], the Kb was 8.91e-09 M.

With `CCOC(=O)CN1CCN(C2=Nc3ccccc3Cc3ccccc32)CC1` [Example 25, Ethyl 4-(11H-Dibenz[b,e]azepin-6-yl)-1-piperazineacetate], the Kb is 4.57e-08 M.

In turn, `CCOC(=O)CCCN1CCN(C2=Nc3ccccc3Cc3ccccc32)CC1` [Example 26, Ethyl 4-(11H-Dibenz[b,e]azepin-6-yl)-1-piperazinebutyrate] had a Kb of 1.35e-08 M.

Turning to `CCOC(=O)CCCCN1CCN(C2=Nc3ccccc3Cc3ccccc32)CC1` [Example 27, Ethyl 4-(11H-Dibenz[b,e]azepin-6-yl)-1-piperazinevalerate], the Kb was 7.94e-09 M.

In the case of `CCOC(=O)CCCCCN1CCN(C2=Nc3ccccc3Cc3ccccc32)CC1` [Example 28, Ethyl 4-(11H-Dibenz[b,e]azepin-6-yl)-1-piperazinecaproate], the Kb is 1.74e-08 M.

Regarding `O=C(O)CCN1CCN(C2=Nc3ccccc3Cc3ccccc32)CC1` [Example 30, 4-(11H-Dibenz[b,e]azepin-6-yl)-1-piperazinepropionic acid], the Kb was 5.75e-08 M.

`O=C(O)CCCCN1CCN(C2=Nc3ccccc3Cc3ccccc32)CC1` [Example 32, 4-(11H-Dibenz[b,e]azepin-6-yl)-1-piperazinevaleric acid] showed a Kb of 5.75e-08 M.

For the molecule `O=C(O)CCCCCN1CCN(C2=Nc3ccccc3Cc3ccccc32)CC1` [Example 33, 4-(11H-Dibenz[b,e]azepin-6-yl)-1-piperazinecaproic acid], the Kb was 2.69e-08 M.

`CCOC(=O)CCN1CCN2c3ccccc3Cc3ccccc3C2C1` (stereo not shown) [Example 35, Ethyl 3-(1,2,3,4,10,14b-Hexahydrodibenzo[c,f]pyrazino[1,2-a]azepin-2-yl)propionate]: the Kb was 2.69e-09 M.

Regarding `CCOC(=O)CN1CCN2c3ccccc3Cc3ccccc3C2C1` (stereo not shown) [Example 36, Ethyl 2-(1,2,3,4,10,14b-Hexahydrodibenzo[c,f]pyrazino[1,2-a]azepin-2-yl)acetate], the Kb was 3.24e-08 M.

In turn, `CCOC(=O)CCCN1CCN2c3ccccc3Cc3ccccc3C2C1` (stereo not shown) [Example 37, Ethyl 4-(1,2,3,4,10,14b-Hexahydrodibenzo[c,f]pyrazino[1,2-a]azepin-2-yl)butyrate] showed a Kb of 2.4e-09 M.

Take `CCOC(=O)CCCCN1CCN2c3ccccc3Cc3ccccc3C2C1` (stereo not shown) [Example 38, Ethyl 5-(1,2,3,4,10,14b-Hexahydrodibenzo[c,f]pyrazino[1,2-a]azepin-2-yl)valerate]: the Kb was 1.1e-08 M.

Consider `CCOC(=O)CCCCCN1CCN2c3ccccc3Cc3ccccc3C2C1` (stereo not shown) [Example 39, Ethyl 6-(1,2,3,4,10,14b-Hexahydrodibenzo[c,f]Pyrazino[1,2-a]azepin-2-yl)caproate], for which the Kb is 1.29e-08 M.

The molecule `O=C(O)CN1CCN2c3ccccc3Cc3ccccc3C2C1` (stereo not shown) [Example 40, 2-(1,2,3,4,10,14b-Hexahydrodibenzo[c,f]pyrazino[1,2-a]azepin-2-yl)acetic acid] gave a Kb of 1.82e-08 M.

Turning to `O=C(O)CCN1CCN2c3ccccc3Cc3ccccc3C2C1` (stereo not shown) [Example 41, 3-(1,2,3,4,10,14b-Hexahydrodibenzo[c,f]pyrazino[1,2-a]azepin-2-yl)propionicacid], the Kb was 2.51e-08 M.

In the case of `O=C(O)CCCN1CCN2c3ccccc3Cc3ccccc3C2C1` (stereo not shown) [Example 42, 4-(1,2,3,4,10,14b-Hexahydrodibenzo[c,f]pyrazino[1,2-a]azepin-2-yl)butyric acid], the Kb is 3.09e-08 M.

In turn, `O=C(O)CCCCN1CCN2c3ccccc3Cc3ccccc3C2C1` (stereo not shown) [Example 43, 5-(1,2,3,4,10,14b-Hexahydrodibenzo[c,f]pyrazino[1,2-a]azepin-2-yl)valeric acid] gave a Kb of 4.79e-08 M.

Consider `O=C(O)CCCCCN1CCN2c3ccccc3Cc3ccccc3C2C1` (stereo not shown) [Example 44, 6-(1,2,3,4,10,14b-Hexahydrodibenzo[c,f]pyrazino[1,2-a]azepin-2-yl)caproic acid], for which the Kb was 3.24e-08 M.

For `CN1CCN(C2=Nc3ccccc3Cc3ccccc32)CC1` [Perlapine, reference compound], the Kb is 7.08e-10 M.

The subject of the next experiment is 48 hr homologous passive cutaneous anaphylaxis (PCA) in rat. In words: Antiallergic activity (48 hr homologous passive cutaneous anaphylaxis (PCA) in rat). It is filed as in vivo, rat (male Wistar). The conditions noted are these: oral, 1 hr before antigen challenge, vs control group, read-out: Inhibition rate (%) of PCA. As to the method: 2. Antiallergic activity (48 hr homologous passive cutaneous anaphylaxis (PCA) in rat)
Male Wistar rats, 6 weeks of age, were passively sensitized by intracutaneous injection in the back of a volume of 0.1 ml of anti-DNP-As rat serum. Forty-eight hours later, the animals were administered an intravenous injection of 0.5 ml saline solution containing 1 mg of DNP-As and 5 mg of Evans blue. The animals were sacrificed 30 min after the injection and the extravasated dye was extracted with 1N KOH and acetone, neutralized with 1N H3 PO4 and the absorbance at 620 nm was determined. The test compounds were administered orally in a dose of 1 mg/Kg 1 hr before antigen challenge. The inhibitory activity of a test compound was expressed as percent inhibition of PCA as compared with the control group.
What is called inhibition is the relative decrease from the control value, in per cent. In the case of `Clc1ccc2c(c1)C(N1CCNCC1)=Nc1ccccc1O2` [Amoxapine, reference compound], the inhibition at 1 mg/kg worked out at 50.9%.

With `O=C(O)CCN1CCN(C2=Nc3ccccc3Oc3ccc(Cl)cc32)CC1` [Example 8, 4-(2-Chlorodibenz[b,f][1,4]oxazepin-11-yl)-1-piperazinepropionic acid], the inhibition at 1 mg/kg was 88.6%.

As to `O=C(O)CCCN1CCN(C2=Nc3ccccc3Oc3ccc(Cl)cc32)CC1` [Example 9, 4-(2-Chlorodibenz[b,f][1,4]oxazepin-11-yl)-1-piperazinebutyric acid], the inhibition at 1 mg/kg stood at 95.8%.

`O=C(O)CCCCN1CCN(C2=Nc3ccccc3Oc3ccc(Cl)cc32)CC1` [Example 10, 4-(2-Chlorodibenz[b,f][1,4]oxazepin-11-yl)-1-piperazinevaleric acid]: the inhibition at 1 mg/kg turned out to be 84.1%.

For `O=C(O)CCCCCN1CCN(C2=Nc3ccccc3Oc3ccc(Cl)cc32)CC1` [Example 11], the inhibition at 1 mg/kg stood at 86.4%.

With `O=C(O)CCN1CCN(C2=Nc3ccccc3Sc3ccc(Cl)cc32)CC1` [Example 19, 4-(2-Chlorodibenzo[b,f][1,4]thiazepin-11-yl)-1-piperazinepropionic acid], the inhibition at 1 mg/kg stood at 64.6%.

As for `O=C(O)CCCN1CCN(C2=Nc3ccccc3Sc3ccc(Cl)cc32)CC1` [Example 20, 4-(2-Chlorodibenzo[b,f][1,4]thiazepin-11-yl)-1-piperazinebutyric acid], the inhibition at 1 mg/kg is 77.7%.

Turning to `O=C(O)CCCCN1CCN(C2=Nc3ccccc3Sc3ccc(Cl)cc32)CC1` [Example 21, 4-(2-Chlorodibenzo [b,f][1,4]thiazepin-11-yl)-1-piperazinevaleric acid], the inhibition at 1 mg/kg stood at 78.5%.

For the molecule `O=C(O)CCCCCN1CCN(C2=Nc3ccccc3Sc3ccc(Cl)cc32)CC1` [Example 22, 4-(2-Chlorodibenzo[b,f][1,4]thiazepin-11-yl)-1-piperazinecaproic acid], the inhibition at 1 mg/kg is 77.2%.

For the molecule `O=C(O)CCN1CCN2c3ccccc3Cc3ccccc3C2C1` (stereo not shown) [Example 41, 3-(1,2,3,4,10,14b-Hexahydrodibenzo[c,f]pyrazino[1,2-a]azepin-2-yl)propionicacid], the inhibition at 1 mg/kg worked out at 76.5%.

Consider `O=C(O)CCCN1CCN2c3ccccc3Cc3ccccc3C2C1` (stereo not shown) [Example 42, 4-(1,2,3,4,10,14b-Hexahydrodibenzo[c,f]pyrazino[1,2-a]azepin-2-yl)butyric acid], for which the inhibition at 1 mg/kg came out at 65.6%.

In the case of `O=C(O)CCCCN1CCN2c3ccccc3Cc3ccccc3C2C1` (stereo not shown) [Example 43, 5-(1,2,3,4,10,14b-Hexahydrodibenzo[c,f]pyrazino[1,2-a]azepin-2-yl)valeric acid], the inhibition at 1 mg/kg is 73.9%.

As to `O=C(O)CCCCCN1CCN2c3ccccc3Cc3ccccc3C2C1` (stereo not shown) [Example 44, 6-(1,2,3,4,10,14b-Hexahydrodibenzo[c,f]pyrazino[1,2-a]azepin-2-yl)caproic acid], the inhibition at 1 mg/kg was determined as 71.8%.

On to `CN1CCN2c3ccccc3Cc3ccccc3C2C1` (stereo not shown) [Mianserin, reference compound], for which the inhibition at 1 mg/kg worked out at 61.4%.
